Measurements taken from US10106542B2, “Substituted 6,7-dihydropyrazolo[1,5-a]pyrazines as negative allosteric modulators of mGluR2 receptors” (Janssen Pharmaceutica NV, priority 2013, dated 2018).

Legend:
human mGlu2 receptor = biological target: T1, human mGlu2 receptor (Homo sapiens, UniProt Q14416); assay: [35S]GTPγS binding assay (mGluR2 negative allosteric modulation); assay type: biochemical; settings: for IC50: read-out: GTPγS - hmGluR2 anGT pIC50 (converted); for Emax: relative maximal effect: maximal % inhibition relative to the control glutamate response, read-out: GTPγS - hmGluR2 anGT Emax
T1 construct: expressed in transfected cells; host or cells: CHO cells (membrane preparation)
T1 sequence (Q14416 19-872): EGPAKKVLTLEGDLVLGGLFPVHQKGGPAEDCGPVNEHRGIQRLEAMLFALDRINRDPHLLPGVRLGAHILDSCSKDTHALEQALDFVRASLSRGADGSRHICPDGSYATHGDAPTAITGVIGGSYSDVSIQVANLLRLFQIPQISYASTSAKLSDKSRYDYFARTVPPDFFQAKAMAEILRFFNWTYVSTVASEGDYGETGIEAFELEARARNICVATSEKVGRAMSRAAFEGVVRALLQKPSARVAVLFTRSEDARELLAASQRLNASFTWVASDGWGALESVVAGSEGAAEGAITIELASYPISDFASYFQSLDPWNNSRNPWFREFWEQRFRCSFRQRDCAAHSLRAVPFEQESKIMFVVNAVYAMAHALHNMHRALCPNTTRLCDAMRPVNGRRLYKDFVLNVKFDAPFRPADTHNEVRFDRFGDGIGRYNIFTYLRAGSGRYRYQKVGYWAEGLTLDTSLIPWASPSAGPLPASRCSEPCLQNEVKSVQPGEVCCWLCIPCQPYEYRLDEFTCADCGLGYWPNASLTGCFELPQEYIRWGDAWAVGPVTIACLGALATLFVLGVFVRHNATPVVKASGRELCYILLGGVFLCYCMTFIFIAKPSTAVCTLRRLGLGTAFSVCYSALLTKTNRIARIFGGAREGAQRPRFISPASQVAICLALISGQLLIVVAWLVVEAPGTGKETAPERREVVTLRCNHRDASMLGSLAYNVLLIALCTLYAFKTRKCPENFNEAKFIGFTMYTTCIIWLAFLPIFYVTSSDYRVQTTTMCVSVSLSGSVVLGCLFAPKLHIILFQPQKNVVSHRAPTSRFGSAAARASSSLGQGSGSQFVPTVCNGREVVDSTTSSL
Summary of the method: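 Negative allosteric modulation read as [35S]GTPγS (0.1 nM) incorporation over 30 min at 30 °C, expressed as % of the response to an EC80-equivalent glutamate concentration. Assay used 7 μg human mGlu2 CHO membrane protein in HEPES pH 7.4 buffer with NaCl, MgCl2, GDP and saponin; bound label collected by filtration.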

rats = assay: Reversal of the effect of the mGluR2 PAM JNJ-42153605 on scopolamine-induced hyperlocomotion; assay type: in vivo; settings: Rattus norvegicus, 1 h, test compound 60 min before recording, criterion total distance >1500 cm
Procedure: 2) Reversal of the Effect of the mGluR2 PAM JNJ-42153605 on Scopolamine-Induced Hyperlocomotion Apparatus
Motor activity was measured in microprocessor-based motor activity arenas (closed gray PVC cylinders with a height of 39 cm and a diameter of 31 cm). Each arena was placed on an infrared LED (8×8 LEDs) lit box (white PVC squared box; 40×40 cm^2; height 12.5 cm. An infrared-sensitive tube camera and a white light source were mounted to the ceiling above the observation chamber to track the animal. The total distance traveled (cm) was recorded and analyzed using the Noldus Ethovision XT Video Tracking System (Version 7.0.418; Noldus, Wageningen, The Netherlands). The intensity of the light within the activity cages (measured in the centre at the level of the floor) ranged between 4 and 8 LUX.
The rats were pretreated with test compound or vehicle at 60 min before the start of the activity recordings and placed into individual cages. The rats were challenged with JNJ-42153605 (3-(cyclopropylmethyl)-7-(4-phenylpiperidin-1-yl)-8-(trifluoromethyl)[1,2,4]triazolo[4,3-a]pyridine; WO2010/130424; Cid et al. J. Med. Chem. 2012, 55, 8770-8789) (20 mg/kg, i.v.) 30 min before the start of the activity recording combined with scopolamine (0.16 mg/kg, i.v.) just before the start of the activity measurements Immediately after the injection of scopolamine, the rats were placed into the activity monitors and total distance travelled over the first 30 min was measured.
Animals receiving the combination of JNJ-42153605 and scopolamine (n=433) almost always travelled a distance of less than 1500 cm (<1500 cm) (only 2.5% of the control rats travelled a distance of more than 1500 cm (>1500 cm)). On the other hand, animals challenged with scopolamine alone (n=215) always travelled a total distance of more than 1500 cm (>1500 cm) and almost always (in 95.8% of the rats) a distance of more than 4400 cm (>4400 cm). […] For reversal of the inhibitory effect of JNJ-42153605 on the scopolamine-induced hyperlocomotion, two all-or-none criteria were adopted: (1) reversal: total distance >1500 cm; (2) normalization: total distance >4400 cm.

Wiga rats = assay: Reserpine interaction test in rats; assay type: in vivo, rat; settings: for ED50: Rattus norvegicus, po, Time 60, reserpine 10 mg/kg SC, Wiga rats, read-out: ED50, reversal of reserpine-induced ptosis
Procedure: 4) Reserpine Interaction Test in Rats
It was investigated to what extent the mydriatic action of test compounds was sufficient to counteract the miosis induced by the monoamines-depleting agent reserpine (10 mg/kg; SC) in Wiga rats.
The effects are illustrated in FIG. 3. […] The reference mGlu2 NAMs RO-4995819 (40 mg/kg, p.o.), RO-4491533 (40 mg/kg, p.o.; 10 mg/kg, s.c.) and [CAS 579473-69-1]

[1] = membranes from CHO cells transfected with human mGlu2 receptor, glutamate 60 μM, pIC50 = −log IC50 (M)

Row | melting point | IC50 (human mGlu2 receptor; [1]) [M] | Emax (human mGlu2 receptor) [%] | GTPγS - hmGluR2 anGT pIC50 (human mGlu2 receptor; [1]) | Compound | ED50 (rats; Route PO) [mg/kg] | ED50 (Wiga rats) [mg/kg] | ED50 (rats; Route SC) [mg/kg] | interactions with reserpine (mydriasis, reversal of ptosis, miosis, sedation) (Wiga rats; 10 mg/kg, s.c.) | interactions with reserpine (mydriasis, reversal of ptosis, miosis, sedation) (Wiga rats; 40 mg/kg, p.o.)
1 | 129.8 °C | 8.32e-09 | 107 |  | C[C@H]1CN(c2ccc(C(F)(F)F)cc2)C(=O)c2c(-c3ccnc(N4CCC4)c3)cnn21 [compound 102] | ≥ 2.5 |  |  |  | 
2 |  |  |  |  | Cc1ccc(N2C[C@H](C)n3ncc(-c4ccnc(C)c4)c3C2=O)cc1 [compound 78] |  | ≥ 10 |  |  | 
3 |  | 5.13e-08 | 102 |  | Cc1cc(-c2cnn3c2C(=O)N(c2cccc(Cl)c2)C[C@@H]3C)ccn1 [compound 16] |  |  | ≥ 10 |  | 
4 |  | 2.88e-09 | 107 |  | Cc1cc(-c2cnn3c2C(=O)N(c2ccc(C(F)(F)F)c(Cl)c2)C[C@@H]3C)cc(C)n1 [compound 43] | 1.26 |  |  |  | 
5 |  |  |  |  | Cc1cc(-c2cnn3c2C(=O)N(c2ccc(C#N)cc2)C[C@@H]3C)ccn1 [compound 80] |  | > 2.5 |  |  | 
6 | 67.8 °C | 8.32e-09 | 106 |  | CNc1cc(-c2cnn3c2C(=O)N(c2ccc(C(F)(F)F)c(F)c2)C[C@@H]3C)ccn1 [compound 182] | 1.99 |  |  |  | 
7 | 210.61 °C (dec.) | 1.78e-09 | 110 |  | CNc1cc(-c2cnn3c2C(=O)N(c2ccc(C(F)(F)F)c(Cl)c2)C[C@@H]3C)cc(C#N)n1 [compound 95] | > 2.5 |  |  |  | 
8 |  | 5.01e-09 | 106 |  | Cc1cc(-c2cnn3c2C(=O)N(c2ccc(Cl)c(Cl)c2)C[C@@H]3C)ccn1 [compound 6] | 0.8 |  |  |  | 
9 | 128.9 °C | 2.95e-08 | 103 |  | Cc1cc(-c2cnn3c2C(=O)N(c2ccc(C(F)(F)F)c(C#N)c2)C[C@@H]3C)ccn1 [compound 13] | 7.94 |  |  |  | 
10 |  | 3.63e-09 | 108 |  | CCNc1cc(-c2cnn3c2C(=O)N(c2ccc(C(F)(F)F)c(C)c2)C[C@@H]3C)ccn1 [compound 256] | ≥ 2.5 |  |  |  | 
11 | 119.7 °C | 8.32e-09 | 105 |  | CCOc1nc(N2C[C@H](C)n3ncc(-c4ccnc(C)c4)c3C2=O)ccc1Cl [compound 201] | > 2.5 |  |  |  | 
12 | 126.4 °C | 1.45e-08 | 108 |  | C[C@H]1CN(c2ccc(C(F)(F)F)cc2)C(=O)c2c(-c3ccnc(C(F)(F)F)c3)cnn21 [compound 99] | ≥ 2.5 |  |  |  | 
13 |  | 3.63e-09 | 108 |  | CCNc1cc(-c2cnn3c2C(=O)N(c2ccc(Cl)c(Cl)c2)C[C@@H]3C)ccn1 [compound 257] | ≥ 2.5 |  |  |  | 
14 |  | 1.95e-08 | 104 |  | COc1cc(N2C[C@H](C)n3ncc(-c4ccnc(C)c4)c3C2=O)ccc1C(F)(F)F [compound 12] | 1.25 |  |  |  | 
15 |  | 2.4e-08 | 104 |  | Cc1cc(-c2cnn3c2C(=O)N(c2ccc(C(F)(F)F)cc2)C[C@@H]3C)cc(C)n1 [compound 14] | 5 |  |  |  | 
16 |  |  |  |  | Cc1cc(-c2cccc(C3=Nc4cc(C)c(C(F)(F)F)cc4NC(=O)C3)c2)cc(C)n1 [RO-4491533, reference compound] |  |  |  | devoid of these interactions with reserpine | devoid of these interactions with reserpine
17 | 155.1 °C | 2.75e-08 | 103 |  | C[C@H]1CN(c2ccc(C(F)(F)F)cc2)C(=O)c2c(-c3ccnc(C#N)c3)cnn21 [compound 127, 4-[(7S)-7-Methyl-4-oxo-5-[4-(trifluoromethyl)phenyl]-6,7-dihydropyrazolo[1,5-a]pyrazin-3-yl]pyridine-2-carbonitrile] | 1.99 |  |  |  | 
18 |  | 6.31e-09 | 116 |  | CNc1cc(-c2cnn3c2C(=O)N(c2ccc(C(F)(F)F)c(C)c2)C[C@@H]3C)ccn1 [compound 251] | > 0.63 |  |  |  | 

Row | melting point | IC50 (human mGlu2 receptor; [1]) [M] | Emax (human mGlu2 receptor) [%] | GTPγS - hmGluR2 anGT pIC50 (human mGlu2 receptor; [1]) | Compound | ED50 (rats; Route PO) [mg/kg] | ED50 (Wiga rats) [mg/kg] | ED50 (rats; Route SC) [mg/kg] | interactions with reserpine (mydriasis, reversal of ptosis, miosis, sedation) (Wiga rats; 10 mg/kg, s.c.) | interactions with reserpine (mydriasis, reversal of ptosis, miosis, sedation) (Wiga rats; 40 mg/kg, p.o.)
19 | 144.9 °C |  | 109 | 8.16 | C[C@H]1CN(c2ccc(C(F)(F)F)c(Cl)c2)C(=O)c2c(-c3ccnc(C#N)c3)cnn21 [compound 100] | > 10 |  |  |  | 
20 | 99.8 °C | 2.51e-09 | 102 |  | C[C@H]1CN(c2ccc(C(F)(F)F)cc2)C(=O)c2c(-c3ccnc(N(C)C)c3)cnn21 [compound 166] | 0.5 |  | ≥ 10 |  | 
21 | 105.4 °C | 1e-08 | 105 |  | Cc1cc(-c2cnn3c2C(=O)N(c2ccc(OC(F)(F)F)cc2)C[C@@H]3C)ccn1 [compound 152] | 1.99 |  |  |  | 
22 | 125.82 °C (dec.) | 3.16e-09 | 111 |  | CNc1cc(-c2cnn3c2C(=O)N(c2ccc(C(F)(F)F)c(OC)n2)C[C@@H]3C)ccn1 [compound 237] | 1.99 |  |  |  | 
23 |  | 3.72e-09 | 108 |  | COc1cc(-c2cnn3c2C(=O)N(c2ccc(C(F)(F)F)c(Cl)c2)C[C@@H]3C)ccn1 [compound 104] | ≥ 2.5 |  |  |  | 
24 | 143.6 °C | 1.05e-08 | 103 |  | Cc1cc(-c2cnn3c2C(=O)N(c2ccc(Cl)c(C(F)(F)F)c2)C[C@@H]3C)ccn1 [compound 9] | ≥ 2.5 |  |  |  | 
25 |  | 1.29e-08 | 110 |  | CNc1cc(-c2cnn3c2C(=O)N(c2ccc(C(F)(F)F)cc2)C[C@@H]3C)cc(OC)n1 [compound 242] | > 2.5 |  |  |  | 
26 | 247 °C | 3.31e-09 | 104 |  | Cc1cc(-c2cnn3c2C(=O)N(c2ccc(S(F)(F)(F)(F)F)cc2)C[C@@H]3C)ccn1 [compound 4] | 1.26 |  |  |  | 
27 |  | 7.24e-09 | 105 |  | Cc1cc(-c2cnn3c2C(=O)N(c2ccc(SC(F)(F)F)cc2)C[C@@H]3C)ccn1 [compound 236] | > 2.5 |  |  |  | 
28 | 98.5 °C | 5.25e-08 | 102 |  | CCOc1cc(N2C[C@H](C)n3ncc(-c4ccnc(C)c4)c3C2=O)ccc1Cl [compound 18] | ≥ 10 |  |  |  | 
29 | 137 °C | 6.92e-08 | 105 |  | COc1cc(N2C[C@H](C)n3ncc(-c4ccnc(C)c4)c3C2=O)ccc1Cl [compound 19] | ≥ 10 |  |  |  | 
30 | 76.8 °C | 1.32e-08 | 106 |  | COc1cc(-c2cnn3c2C(=O)N(c2ccc(C(F)(F)F)c(OC)c2)C[C@@H]3C)ccn1 [compound 180] | ≥ 2.5 |  |  |  | 
31 |  | 6.46e-09 | 105 |  | Cc1cc(-c2cnn3c2C(=O)N(c2ccc(Cl)c(Cl)c2)C[C@@H]3C)cc(C)n1 [compound 47] | 1.99 |  |  |  | 
32 |  | 6.61e-09 | 105 |  | COc1cc(-c2cnn3c2C(=O)N(c2ccc(Cl)c(Cl)c2)C[C@@H]3C)ccn1 [compound 142] | 1.99 |  |  |  | 
33 |  |  |  |  | CNc1cc(-c2cnn3c2C(=O)N(c2ccc(C(F)(F)F)c(Cl)c2)C[C@@H]3C)ccn1 [compound 103] | 0.96 |  |  |  | 
34 |  | 1.78e-09 | 106 |  | Cc1cc(-c2cnn3c2C(=O)N(c2ccc(C(F)(F)F)c(Cl)c2)C[C@@H]3C)ccn1 [compound 3] | 1.99 |  |  |  | 
35 |  | 1.17e-08 | 104 |  | Cc1cc(-c2cnn3c2C(=O)N(c2ccc(C(F)(F)F)c(F)c2)C[C@@H]3C)ccn1 [compound 10] | 0.79 |  |  |  | 
36 |  | 1.51e-09 | 107 |  | CCNc1cc(-c2cnn3c2C(=O)N(c2ccc(C(F)(F)F)c(Cl)c2)C[C@@H]3C)ccn1 [compound 255] | 0.79 |  |  |  | 
